Experimental data from patent US20220362254A1, “METHODS FOR REPROGRAMMING CANCER CELLS” (Thomas Jefferson University, priority 2019, published 2022).

Tests used:
[1] = tested on: H3K27me3; assay: CAA: H3K27me3 on nascent chromatin of TCL cells (HUT78); type: cell-based, human
Protocol: FIG. 10B: HUT78 cells were induced with 0.2 μM of RXR for the indicated times. Cells were labeled with EdU for 15 min, and CAA was performed between Biotin (EdU) and H3K27me3 antibody. PLA only is shown in the lower panel.
FIGS. 15A-15C illustrate the effect of EPZ and small molecule ligand treatment on TF binding. […] Cells were immunostained with antibodies to LXRa (left), and GR (right). Nuclei stained by DAPI are shown in the lower panel. […] In FIG. 15C, T-ALL CCRF-HSB-2 cells were untreated or treated for 6 hr with 5 μM of ISX9, or pre-treated with 0.5 μM EPZ and then treated for 6 hr with 5 μM of ISX9. In FIG. 15B and FIG. 15C, DNA was labeled with EdU for 15 min. […]
(§1) Chromatin assembly assay: Cells were grown on chamber slides, pulse-labeled with 5 μM EdU and fixed at room temperature with 4% formaldehyde in PBS for 15 min, washed with PBS, and permeabilized with 0.3% Triton for 15 min. […] The results of CAA experiments shown in FIG. 1A were quantified by counting the number of PLA signals per EdU-labeled nuclei in 50 cells of each of the three independent experiments. The nature of the results in the rest of the figures alleviated the need to quantify the results of these assays.
New approaches to study the fate of chromatic-associated proteins following DNA replication were developed. […] Reliable pulse-chase EdU labeling in cells can be detected from 3-5 min to several hours. […]

[2] = tested on: GR target genes; assay: qRT-PCR of differentiation-associated (GR target) genes in THP-1, SEM and HH cells; type: cell-based, human; settings: 24 hr
Protocol: Graphs show induction of transcription of GR target genes. […] Graphs show induction of transcription of GR target genes. FIG. 17C The T-ALL HH cells were untreated (Untr) or treated with 1 μM EPZ for 24 hr. […] Bottom graph, cells were then treated with 1 μM of ISX-9 for 72 hr or with combinations of EPZ and ISX9. Analysis by qRT-PCR.
Gene expression analysis by RT-qPCR: Total RNA was isolated directly from freshly collected hESCs with TRIzol and for mESCs with High Pure RNA Isolation Kit. cDNA was synthesized by using 1 μg total RNA in a 20 μL reaction with Superscript III and oligo (dT) for hESC or random hexamers (Life Tech) for mECS. After reverse transcription was complete, one microliter of RNase H was added to each reaction tube, and the tubes were incubated for 20 min at 37° C. before proceeding to PCR. Real-time PCR was carried out on a 7500 Real-Time PCR System using the 2× Power SYBR green PCR master mix. GAPDH was used as an internal control. All PCR products were checked by running an agarose gel for the first time and by doing dissociation assay every time to exclude the possibility of multiple products. PCR analyses were conducted in triplicate for each sample.
Graphs show induction of transcription of GR target genes. […] Graphs show induction of transcription of GR target genes. […]

[3] = target: EZH2 (Homo sapiens, UniProt Q15910); settings: also inhibits other methyltransferases; cited from earlier work
Sequence of EZH2 (Q15910 whole entry): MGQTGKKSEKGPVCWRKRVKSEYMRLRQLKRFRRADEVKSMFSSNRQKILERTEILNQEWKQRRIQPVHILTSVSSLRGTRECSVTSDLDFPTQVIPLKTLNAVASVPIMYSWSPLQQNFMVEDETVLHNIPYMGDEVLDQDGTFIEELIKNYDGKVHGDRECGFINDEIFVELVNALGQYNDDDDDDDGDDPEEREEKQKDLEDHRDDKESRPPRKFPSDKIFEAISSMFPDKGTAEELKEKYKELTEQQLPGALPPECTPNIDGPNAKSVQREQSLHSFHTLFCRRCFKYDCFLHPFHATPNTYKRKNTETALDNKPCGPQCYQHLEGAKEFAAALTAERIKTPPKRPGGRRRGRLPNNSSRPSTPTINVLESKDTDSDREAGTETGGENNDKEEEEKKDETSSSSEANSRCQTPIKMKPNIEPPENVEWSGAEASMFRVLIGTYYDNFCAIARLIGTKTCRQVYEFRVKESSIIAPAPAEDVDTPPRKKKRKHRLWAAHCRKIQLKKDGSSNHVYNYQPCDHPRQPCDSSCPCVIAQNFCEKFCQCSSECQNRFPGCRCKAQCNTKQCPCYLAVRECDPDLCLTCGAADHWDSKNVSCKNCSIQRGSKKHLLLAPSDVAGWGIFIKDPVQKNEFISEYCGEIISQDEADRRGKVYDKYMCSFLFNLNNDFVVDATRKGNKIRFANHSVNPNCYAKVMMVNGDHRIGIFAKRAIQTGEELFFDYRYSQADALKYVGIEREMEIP
Sequence of EZH2 (O75530 whole entry partner): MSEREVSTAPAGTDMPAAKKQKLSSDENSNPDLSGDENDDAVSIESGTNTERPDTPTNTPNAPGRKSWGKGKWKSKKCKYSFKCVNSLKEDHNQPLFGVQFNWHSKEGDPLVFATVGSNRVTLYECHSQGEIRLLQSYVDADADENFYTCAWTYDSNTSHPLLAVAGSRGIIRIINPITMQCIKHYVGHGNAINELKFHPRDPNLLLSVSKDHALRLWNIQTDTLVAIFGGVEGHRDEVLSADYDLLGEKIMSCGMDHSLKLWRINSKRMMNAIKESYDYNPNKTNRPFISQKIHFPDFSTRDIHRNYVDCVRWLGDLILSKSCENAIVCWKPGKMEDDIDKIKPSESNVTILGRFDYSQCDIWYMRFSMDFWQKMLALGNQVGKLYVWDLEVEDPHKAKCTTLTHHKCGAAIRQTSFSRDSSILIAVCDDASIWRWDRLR
Sequence of EZH2 (Q15022 whole entry partner): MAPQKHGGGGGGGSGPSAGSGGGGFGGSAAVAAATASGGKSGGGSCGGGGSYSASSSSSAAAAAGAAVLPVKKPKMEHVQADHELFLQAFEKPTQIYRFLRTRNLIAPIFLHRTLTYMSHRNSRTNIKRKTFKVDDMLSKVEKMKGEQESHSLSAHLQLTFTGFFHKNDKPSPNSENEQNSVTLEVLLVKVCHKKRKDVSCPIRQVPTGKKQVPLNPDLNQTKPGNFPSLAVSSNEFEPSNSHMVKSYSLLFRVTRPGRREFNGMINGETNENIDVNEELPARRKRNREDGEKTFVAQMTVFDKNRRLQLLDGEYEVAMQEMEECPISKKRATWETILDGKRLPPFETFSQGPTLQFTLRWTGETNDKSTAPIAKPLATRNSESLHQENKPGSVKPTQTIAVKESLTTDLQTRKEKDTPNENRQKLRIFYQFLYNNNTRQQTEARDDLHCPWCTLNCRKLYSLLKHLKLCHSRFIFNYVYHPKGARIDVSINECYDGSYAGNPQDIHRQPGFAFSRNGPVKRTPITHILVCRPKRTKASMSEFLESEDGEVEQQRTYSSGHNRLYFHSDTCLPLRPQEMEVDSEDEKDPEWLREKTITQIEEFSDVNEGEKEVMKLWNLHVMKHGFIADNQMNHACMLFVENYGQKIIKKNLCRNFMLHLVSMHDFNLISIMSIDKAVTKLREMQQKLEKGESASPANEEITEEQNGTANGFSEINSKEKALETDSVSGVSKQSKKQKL

[4] = tested on: LXRa; assay: Immunostaining of LXRa localisation in HUT78 cells; type: cell-based, human; settings: 1 μM GW3965, untreated: mostly in the cytoplasm
Protocol: (§2) FIGS. 15A-15C illustrate the effect of EPZ and small molecule ligand treatment on TF binding. […] Cells were immunostained with antibodies to LXRa (left), and GR (right). Nuclei stained by DAPI are shown in the lower panel. […] In FIG. 15C, T-ALL CCRF-HSB-2 cells were untreated or treated for 6 hr with 5 μM of ISX9, or pre-treated with 0.5 μM EPZ and then treated for 6 hr with 5 μM of ISX9. In FIG. 15B and FIG. 15C, DNA was labeled with EdU for 15 min. In FIG. 15B, CAA was performed with antibodies to H3K27me3 (left), LXRa (middle), and GR (right). In FIG. 15C, with antibody to MEF-2. PLA signals are shown in the lower panel. The schemes above show the state of condensation of nascent chromatin.

[5] = tested on: LXRa; assay: CAA: binding of LXRa to nascent DNA in HUT78 cells; type: cell-based, human; settings: 6 hr 1 μM GW3965, no EPZ
Protocol: as §2
(§3) Chromatin assembly assay: Cells were grown on chamber slides, pulse-labeled with 5 μM EdU and fixed at room temperature with 4% formaldehyde in PBS for 15 min, washed with PBS, and permeabilized with 0.3% Triton for 15 min. Cells were subjected to Click-iT reaction with biotin-azide for 30 min. […] The results of CAA experiments shown in FIG. 1A were quantified by counting the number of PLA signals per EdU-labeled nuclei in 50 cells of each of the three independent experiments. The nature of the results in the rest of the figures alleviated the need to quantify the results of these assays.

[6] = tested on: H3K27me3; assay: Chromatin assembly assay (CAA): H3K27me3 on nascent DNA of CD34+ HPCs; type: cell-based, human; settings: CD34+ HPCs exposed to GSKJ4 during 12 hr induction; EdU 15 min, chased to 1 hr
Text: (§4) FIGS. 5A-5B illustrate that fast accumulation of post-replicative H3K27me3 leads to decreased recruitment of lineage-determining TFs to DNA. In FIG. 5A, CD34^+ cells were induced toward myeloid differentiation with G-CSF (left) or M-CSF (middle), or erythroid differentiation with EPO (right) for 12 hr. During the induction period cells were left untreated (upper panels) or treated with the GSKJ4 inhibitor of the H3K27me3 de-methylases (KDMs) UTX and JMJD3 (lower panels). DNA was pulse-labeled with EdU for 15 min and chased to 1 hr. CAA was performed between nascent DNA (biotin) and H3K27me3 (left columns) or (in the right columns) C/EBPa (left), PU.1 (middle) or GATA-1 (right). […] In FIG. 5B, quantification of the results of CAA experiments was determined by counting the number of PLA signals per EdU-labeled nuclei in 50 cells/each of the three independent experiments.
as §1, with “assays. […]” for “assays.”

[7] = tested on: C/EBPa; assay: CAA: recruitment of C/EBPa to nascent DNA in CD34+ HPCs; type: cell-based, human; settings: CD34+ HPCs induced with G-CSF 12 hr
Text: as §4
as §1, with “assays. […]” for “assays.”

[8] = tested on: PU.1; assay: CAA: recruitment of PU.1 to nascent DNA in CD34+ HPCs; type: cell-based, human; settings: CD34+ HPCs induced with M-CSF 12 hr
Text: as §4
as §1, with “assays. […]” for “assays.”

[9] = tested on: GATA-1; assay: CAA: recruitment of GATA-1 to nascent DNA in CD34+ HPCs; type: cell-based, human; settings: CD34+ HPCs induced with EPO 12 hr
Text: as §4
as §1, with “assays. […]” for “assays.”

[10] = tested on: T-bet; assay: CAA: recruitment of T-bet to nascent DNA in T cells (Th1); type: cell-based; settings: Th1 pathway, 10 μM GSKJ4 for 5 hr
Protocol: (§5) FIG. 6 illustrates that fast accumulation of post-replicative H3K27me3 leads to decreased recruitment of lineage-determining TFs to DNA during differentiation of T cells. Naive T cells were primed for 12 hr and stimulated to Th1 (left, middle) or Th2 (right) pathways. Cells were untreated or treated with 10 μM of GSKJ4 for 5 hr, labeled with EdU for 15 min (left) or pulse-labeled for 1 hr (middle and right). CAA was performed with antibodies to H3K27me3 (left), T-bet (middle) and GATA3 (right).
as §3
(§6) New approaches to study the fate of chromatic-associated proteins following DNA replication were developed. […] Cells can be then examined for specificity of interactions (e.g. specific PLA signals are detected only in EdU-labeled nuclei), and by assessing tissue specificity using relevant protein markers. […]

[11] = tested on: GATA3; assay: CAA: recruitment of GATA3 to nascent DNA in T cells (Th2); type: cell-based; settings: Th2 pathway, 10 μM GSKJ4 for 5 hr
Protocol: as §5, §3, §6

[12] = tested on: HL-60 cells; settings: an APL cell line; cited from earlier work
[13] = tested on: HH, HUT78, Jurkat E6.1 and CCRF-HSB-2 cells; assay: Cell viability screen of TCL cells (flow cytometry with Sytox Green); type: cell-based, human; settings: HUT78, Jurkat E6.1, CCRF-HSB-2, with and without 1 μM EPZ 24 hrs, then 10 days
Protocol: (§7) Sezary syndrome (SS) cells HH (FIG. 12A) and HUT78 (FIG. 12B), and T-cell acute lymphoblastic leukemia (T-ALL) cells Jurkat E6.1 (FIG. 12C) and CCRF-HSB-2 (FIG. 12D) were grown with and without 1 μM EPZ for 24 hrs. Indicated small molecule compounds were added in indicated concentrations and cells were grown for an additional 10 days.
To test the idea that restoring the ability of cells to de-condense nascent chromatin may enable reprogramming of TCLs, a two-step induction was devised: Cells were first treated with the inhibitors of the EZH1/2 HMTs, and then induced with small molecule ligands known to activate specific TFs. […] A library of small molecules was compiled that included ligands for nuclear hormone receptors, cytokines, ligands for GPCRs, and small molecules that are used to reprogram mature cells into pluripotent cells (FIG. 11). Since different ligands may induce reprogramming of leukemic cells into different lineages, it was not possible to use specific differentiation markers at initial stages of these screens, and therefore cell viability was used as a readout for the initial screens. The earliest effects on cell viability were observed after 5 days of treatment, and therefore screens for cell viability (flow cytometry with Sytox green) were performed at days 8-11. […]

[14] = tested on: AML cell lines THP-1, K562 and KG-1a; assay: Cell viability of AML cell lines (flow cytometry with Sytox Green); type: cell-based, human; settings: THP-1, K562, KG-1a; performed as in FIG. 12
Protocol: as §7
The assays were performed as described in FIG. 12.
Similar experiments were performed with the AML cell lines THP-1, K562 and KG-1a.

[15] = tested on: MEF2; assay: CAA: binding of MEF2 to nascent chromatin in CCRF-HSB-2 cells; type: cell-based, human; settings: 5 μM ISX9 6 hr, with or without 0.5 μM EPZ pre-treatment
Protocol: as §2, §3

[16] = tested on: THP-1 Luc+ cells; assay: THP-1 Luc+ xenograft AML model, bioluminescence; type: in vivo; settings: NRG mice, THP-1 Luc+ 1×10^6/mouse; 30 days post injection
Text: NRG were mice injected with THP-1 Luc+ cells, an especially aggressive AML line (1×10^6/mouse). 14 days post-injection, mice were imaged and left untreated (Controls), treated with EPZ alone, Dexa alone and ISX9 alone for 16 days, or pre-treated (2 days) with EPZ and co-treated with Dexa and EPZ (Dexa+EPZ) or with ISX9 and EPZ (ISX9+EPZ) for 14 additional days.

[17] = tested on: all tested leukemias; assay: In vitro assays with cultured leukemic cells of various leukemia types; type: cell-based; settings: cell lines of various leukemia types
Protocol: Leukemic cells from patients can be established in short-term culture for about 10 days. During this time, these cells are screened for the best possible reprogramming agent, which causes reprogramming (e.g. differentiation), loss of cell viability and apoptosis. […] These assays include cell viability, apoptosis induction, and examining cell differentiation markers. Thus, within 7-10 days, the most efficient molecules are determined, which induce reprogramming of leukemic cells, which leads to inhibition of cell viability and induction of apoptosis in individual patients. Indeed, similar studies using a number of different cell lines of various leukemia types have seen differences in responses to various reprogramming agents (FIG. 14).

[18] = tested on: Y641 and A677 mutants of EZH2; settings: cited from earlier work

In the case of `C[C@]12C=CC(=O)C=C1CC[C@@H]1[C@@H]2C(=O)C[C@@]2(C)[C@H]1CC[C@]2(O)C(=O)CO` [Prednisone], the “level of H3K27me3 on 15 min-labeled nascent DNA” value ([1]; HUT78 cells, 0.2 μM, through 10 hr of induction) is reported as “remained unchanged” and the “expression of differentiation-associated genes vs untreated cells” value [2] is reported as “no statistical difference”.
For `Nc1nccc2c1ncn2[C@@H]1C=C(CO)[C@@H](O)[C@H]1O` [DZNep, 3-deazaneplanocin A], the “specificity to EZH2” value [3] is given as “not specific to EZH2”.
In the case of `O=C(O)Cc1cccc(OCCCN(Cc2cccc(C(F)(F)F)c2Cl)CC(c2ccccc2)c2ccccc2)c1` [GW3965], the “localisation of LXRa after induction with ligand” value [4] is reported as “exclusively nuclear” and the “binding of LXRa to DNA, ligand alone” value [5] is reported as “not able to bind to DNA”.
For `CCOC(=O)CCNc1cc(N2CCc3ccccc3CC2)nc(-c2ccccn2)n1` [GSKJ4], the “accumulation of H3K27me3 following DNA replication” value [6] was “strongly increased”, the “recruitment of the TF C/EBPa” value [7] was “strongly inhibited” and the “recruitment of the TF PU.1” value [8] was “strongly inhibited”. For the same molecule, the “recruitment of the TF GATA-1” value [9] was “strongly inhibited”, the “recruitment of T-bet to nascent DNA” value [10] was “inhibition” and the “recruitment of GATA3 to nascent DNA” value [11] was “inhibition”.
For `CC1=C(/C=C/C(C)=C/C=C/C(C)=C/C(=O)O)C(C)(C)CCC1` [ATRA, all-trans retinoic acid], the “terminal differentiation of cells” value [12] is listed as “around 90%”.
For `O=C(NC1CC1)c1cc(-c2cccs2)on1` [ISX-9], the “inhibition of cell viability of TCL cells” value [13] was “effective”, the “inhibition of cell viability of AML cell lines” value [14] was “induced inhibition of cell viability in all AML cell lines” and the “binding of activated MEF2 to nascent chromatin” value [15] was “occurs only following de-condensation of chromatin by EPZ”. The “THP-1 cell growth / outgrowth (bioluminescence fold-changes) vs untreated control animals” value [16] was “little effect” and the “efficiency as reprogramming agent across leukemias” value [17] was “efficient in all tested leukemias”.
In the case of `CC[C@H](C)n1cc(C)c2c(C(=O)NCc3c(C)cc(C)[nH]c3=O)cc(-c3ccc(N4CCNCC4)nc3)cc21` [GSK126], the “levels of global and nascent chromatin marked with H3K27me3” value ([1]; 24 hr, 0.5-1 μM range, tested by CAA) is reported as “marked decrease”.
In the case of `Cc1cc(C)c(CNC(=O)c2cc(-c3ccc(CN4CCOCC4)cc3)cc3c2cnn3C2CCCC2)c(=O)[nH]1` [EPZ005687], the “inhibition of the Y641 and A677 mutants of EZH2” value [18] is given as “can also inhibit”.
In the case of arsenic trioxide [ATO], the “terminal differentiation of cells” value [12] is given as “around 90%”.
